Tests used:
Experiment in all cases: radiometric filter-binding kinase assay, Kinaseprofiler
MINK1 (human) = MINK1 (human) (UniProt Q8N4C8); conditions: compound 1.0 µM; ATP 185 µM
TSSK1B (human) = TSSK1B (human) (UniProt Q9BXA7); conditions: compound 1.0 µM; ATP 15 µM
IKBKB (human) = IKBKB (human) (UniProt O14920); conditions: compound 1.0 µM; ATP 10 µM
[1] = test system: HIPK2 (human), Q9H2X6 [I471N]; conditions: compound 1.0 µM; ATP 10 µM
FGFR2 (human) = FGFR2 (human) (UniProt P21802); conditions: compound 1.0 µM; ATP 90 µM
FGFR2 (human), sequence (P21802 whole entry, looked up): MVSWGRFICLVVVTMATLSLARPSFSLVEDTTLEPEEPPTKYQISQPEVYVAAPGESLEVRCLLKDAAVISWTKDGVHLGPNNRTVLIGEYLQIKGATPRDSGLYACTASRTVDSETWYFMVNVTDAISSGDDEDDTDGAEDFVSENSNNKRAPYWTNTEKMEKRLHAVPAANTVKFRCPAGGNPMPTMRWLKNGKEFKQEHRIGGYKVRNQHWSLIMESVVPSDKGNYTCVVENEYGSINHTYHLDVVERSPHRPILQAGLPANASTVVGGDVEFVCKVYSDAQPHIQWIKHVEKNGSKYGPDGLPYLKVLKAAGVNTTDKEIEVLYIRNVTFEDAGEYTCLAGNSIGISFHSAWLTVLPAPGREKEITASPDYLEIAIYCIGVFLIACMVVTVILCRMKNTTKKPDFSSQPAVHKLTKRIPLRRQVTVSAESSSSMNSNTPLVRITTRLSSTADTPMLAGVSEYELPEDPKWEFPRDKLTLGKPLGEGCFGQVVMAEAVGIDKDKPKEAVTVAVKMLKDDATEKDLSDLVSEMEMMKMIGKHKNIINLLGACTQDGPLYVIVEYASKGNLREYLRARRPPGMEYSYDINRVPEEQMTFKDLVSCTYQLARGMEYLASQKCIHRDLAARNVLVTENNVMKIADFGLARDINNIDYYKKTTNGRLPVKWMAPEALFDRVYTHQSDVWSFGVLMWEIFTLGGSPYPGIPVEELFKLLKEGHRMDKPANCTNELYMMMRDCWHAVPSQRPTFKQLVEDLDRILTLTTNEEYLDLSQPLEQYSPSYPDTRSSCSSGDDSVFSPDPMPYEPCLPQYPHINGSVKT

[2] = test system: MARK1 (human), Q9P0L2 [V16E/T20S]; conditions: compound 1.0 µM; ATP 10 µM
PDPK1 (human) = PDPK1 (human) (UniProt O15530); conditions: compound 1.0 µM; ATP 10 µM
[3] = test system: BLK (human), P51451 [M278V]; conditions: compound 1.0 µM; ATP 45 µM
HIPK3 (human) = HIPK3 (human) (UniProt Q9H422); conditions: compound 1.0 µM; ATP 15 µM
[4] = test system: BRSK2 (human), Q8IWQ3 [S251I]; conditions: compound 1.0 µM; ATP 70 µM
BRSK2 (human), Q8IWQ3 [S251I], sequence (Q8IWQ3 whole entry, looked up, stated change not applied): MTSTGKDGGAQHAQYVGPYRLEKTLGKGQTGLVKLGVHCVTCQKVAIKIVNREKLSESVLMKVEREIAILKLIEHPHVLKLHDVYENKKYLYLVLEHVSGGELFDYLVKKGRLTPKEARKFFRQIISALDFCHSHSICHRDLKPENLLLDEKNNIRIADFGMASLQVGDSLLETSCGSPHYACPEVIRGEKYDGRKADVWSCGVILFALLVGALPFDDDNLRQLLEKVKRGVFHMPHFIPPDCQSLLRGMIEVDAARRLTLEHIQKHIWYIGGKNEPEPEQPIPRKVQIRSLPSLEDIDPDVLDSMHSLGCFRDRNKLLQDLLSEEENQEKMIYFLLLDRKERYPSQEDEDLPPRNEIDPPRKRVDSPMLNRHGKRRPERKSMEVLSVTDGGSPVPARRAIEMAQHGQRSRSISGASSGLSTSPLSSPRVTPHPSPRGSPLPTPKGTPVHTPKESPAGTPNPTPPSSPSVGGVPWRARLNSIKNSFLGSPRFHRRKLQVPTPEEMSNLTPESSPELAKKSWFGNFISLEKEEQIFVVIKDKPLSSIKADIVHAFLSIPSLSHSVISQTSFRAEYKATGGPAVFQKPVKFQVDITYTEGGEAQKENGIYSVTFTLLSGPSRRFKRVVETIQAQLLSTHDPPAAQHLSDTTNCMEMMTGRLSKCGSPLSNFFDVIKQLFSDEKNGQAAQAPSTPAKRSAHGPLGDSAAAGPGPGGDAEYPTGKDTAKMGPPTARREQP

MELK (human) = MELK (human) (UniProt Q14680); conditions: compound 1.0 µM; ATP 45 µM
PASK (human) = PASK (human) (UniProt Q96RG2); conditions: compound 1.0 µM; ATP 15 µM
CAMK1 (human) = CAMK1 (human) (UniProt Q14012); conditions: compound 1.0 µM; ATP 200 µM
[5] = test system: MAPK9 (human), P45984 [S51N]; conditions: compound 1.0 µM; ATP 45 µM
CDK7 CCNH MNAT1 (human) = CDK7 CCNH MNAT1 (human) (UniProt P50613+P51948+P51946); conditions: compound 1.0 µM; ATP 90 µM
SIK1 (human) = SIK1 (human) (UniProt P57059); conditions: compound 1.0 µM; ATP 45 µM
TSSK2 (human) = TSSK2 (human) (UniProt Q96PF2); conditions: compound 1.0 µM; ATP 15 µM
MKNK2 (human) = MKNK2 (human) (UniProt Q9HBH9); conditions: compound 1.0 µM; ATP 120 µM
PDGFRA (human) = PDGFRA (human) (UniProt P16234); conditions: compound 1.0 µM; ATP 120 µM
[6] = test system: AXL (human), P30530 [Q764R]; conditions: compound 1.0 µM; ATP 90 µM
PLK2 (human) = PLK2 (human) (UniProt Q9NYY3); conditions: compound 1.0 µM; ATP 120 µM
YES1 (human) = YES1 (human) (UniProt P07947); conditions: compound 1.0 µM; ATP 45 µM
YES1 (human), sequence (P07947 whole entry, looked up): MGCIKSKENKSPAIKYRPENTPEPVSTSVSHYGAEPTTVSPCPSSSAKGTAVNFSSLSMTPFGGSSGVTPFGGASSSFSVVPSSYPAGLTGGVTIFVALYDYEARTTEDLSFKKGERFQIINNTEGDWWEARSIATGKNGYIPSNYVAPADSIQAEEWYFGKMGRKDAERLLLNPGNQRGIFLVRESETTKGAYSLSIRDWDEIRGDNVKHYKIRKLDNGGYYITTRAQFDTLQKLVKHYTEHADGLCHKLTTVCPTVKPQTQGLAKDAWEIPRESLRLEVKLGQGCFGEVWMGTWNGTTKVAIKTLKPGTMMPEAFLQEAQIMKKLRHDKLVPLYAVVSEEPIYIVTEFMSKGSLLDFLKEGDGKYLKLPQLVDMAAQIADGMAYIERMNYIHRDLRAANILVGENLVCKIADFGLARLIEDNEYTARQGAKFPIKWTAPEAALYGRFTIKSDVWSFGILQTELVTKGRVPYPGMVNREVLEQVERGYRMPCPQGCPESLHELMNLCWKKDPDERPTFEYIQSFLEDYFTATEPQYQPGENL

MAP2K7 (human) = MAP2K7 (human) (UniProt O14733); conditions: compound 1.0 µM; ATP 10 µM
[7] = test system: ROS1 (human), P08922 [V2262A]; conditions: compound 1.0 µM; ATP 200 µM
MAPK3 (human) = MAPK3 (human) (UniProt P27361); conditions: compound 1.0 µM; ATP 70 µM
[8] = molecular target: JAK2 JH1 catalytic (human) (UniProt O60674); conditions: compound 1.0 µM; ATP 45 µM
JAK2 JH1 catalytic (human), sequence (O60674 whole entry, looked up): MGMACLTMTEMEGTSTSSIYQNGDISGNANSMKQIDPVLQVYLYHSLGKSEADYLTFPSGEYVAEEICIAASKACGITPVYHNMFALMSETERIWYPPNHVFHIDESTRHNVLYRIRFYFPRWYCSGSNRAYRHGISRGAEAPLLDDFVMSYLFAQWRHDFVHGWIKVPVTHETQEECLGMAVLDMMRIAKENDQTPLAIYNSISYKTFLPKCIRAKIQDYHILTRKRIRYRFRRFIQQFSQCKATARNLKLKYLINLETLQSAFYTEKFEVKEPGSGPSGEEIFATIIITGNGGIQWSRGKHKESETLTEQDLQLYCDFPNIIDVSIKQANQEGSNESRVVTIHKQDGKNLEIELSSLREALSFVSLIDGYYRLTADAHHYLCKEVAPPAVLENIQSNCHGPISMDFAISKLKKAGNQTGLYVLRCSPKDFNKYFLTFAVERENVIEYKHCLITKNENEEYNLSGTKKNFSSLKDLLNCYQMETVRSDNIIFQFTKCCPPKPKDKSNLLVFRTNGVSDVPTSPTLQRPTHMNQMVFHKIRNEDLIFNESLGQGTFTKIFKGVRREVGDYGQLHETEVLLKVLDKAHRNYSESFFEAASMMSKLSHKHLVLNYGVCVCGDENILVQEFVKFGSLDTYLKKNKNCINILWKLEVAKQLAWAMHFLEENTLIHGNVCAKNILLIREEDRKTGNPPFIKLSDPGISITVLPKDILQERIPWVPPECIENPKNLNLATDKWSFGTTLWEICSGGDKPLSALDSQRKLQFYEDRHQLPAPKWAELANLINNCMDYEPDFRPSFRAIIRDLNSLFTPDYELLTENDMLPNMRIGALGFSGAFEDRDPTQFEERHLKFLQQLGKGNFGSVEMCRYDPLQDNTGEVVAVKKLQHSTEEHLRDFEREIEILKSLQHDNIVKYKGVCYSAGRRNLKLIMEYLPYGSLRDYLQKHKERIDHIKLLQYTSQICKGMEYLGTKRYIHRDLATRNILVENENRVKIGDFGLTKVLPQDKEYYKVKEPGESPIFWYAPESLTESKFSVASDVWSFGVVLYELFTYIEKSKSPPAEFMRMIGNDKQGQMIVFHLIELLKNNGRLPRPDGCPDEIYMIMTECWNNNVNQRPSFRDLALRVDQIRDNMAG

FGR (human) = FGR (human) (UniProt P09769); conditions: compound 1.0 µM; ATP 45 µM
PTK6 (human) = PTK6 (human) (UniProt Q13882); conditions: compound 1.0 µM; ATP 15 µM
PIM1 (human) = PIM1 (human) (UniProt P11309); conditions: compound 1.0 µM; ATP 90 µM
PIM1 (human), sequence (P11309 whole entry, looked up): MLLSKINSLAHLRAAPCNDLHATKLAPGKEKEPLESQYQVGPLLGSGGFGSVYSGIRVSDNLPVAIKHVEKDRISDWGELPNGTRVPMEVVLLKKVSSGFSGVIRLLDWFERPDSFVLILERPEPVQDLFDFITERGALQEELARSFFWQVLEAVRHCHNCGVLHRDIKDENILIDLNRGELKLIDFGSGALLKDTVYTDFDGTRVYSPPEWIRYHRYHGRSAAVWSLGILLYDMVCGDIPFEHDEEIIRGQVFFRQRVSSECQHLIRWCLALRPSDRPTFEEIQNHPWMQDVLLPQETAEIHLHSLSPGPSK

EPHA3 (human) = EPHA3 (human) (UniProt P29320); conditions: compound 1.0 µM; ATP 120 µM
EPHA1 (human) = EPHA1 (human) (UniProt P21709); conditions: compound 1.0 µM; ATP 45 µM
PKN2 (human) = PKN2 (human) (UniProt Q16513); conditions: compound 1.0 µM; ATP 15 µM
CDC42BPB (human) = CDC42BPB (human) (UniProt Q9Y5S2); conditions: compound 1.0 µM; ATP 10 µM
IGF1R (human) = IGF1R (human) (UniProt P08069); conditions: compound 1.0 µM; ATP 200 µM
LCK (human) = LCK (human) (UniProt P06239); conditions: compound 1.0 µM; ATP 90 µM
KDR (human) = KDR (human) (UniProt P35968); conditions: compound 1.0 µM; ATP 90 µM
KDR (human), sequence (P35968 whole entry, looked up): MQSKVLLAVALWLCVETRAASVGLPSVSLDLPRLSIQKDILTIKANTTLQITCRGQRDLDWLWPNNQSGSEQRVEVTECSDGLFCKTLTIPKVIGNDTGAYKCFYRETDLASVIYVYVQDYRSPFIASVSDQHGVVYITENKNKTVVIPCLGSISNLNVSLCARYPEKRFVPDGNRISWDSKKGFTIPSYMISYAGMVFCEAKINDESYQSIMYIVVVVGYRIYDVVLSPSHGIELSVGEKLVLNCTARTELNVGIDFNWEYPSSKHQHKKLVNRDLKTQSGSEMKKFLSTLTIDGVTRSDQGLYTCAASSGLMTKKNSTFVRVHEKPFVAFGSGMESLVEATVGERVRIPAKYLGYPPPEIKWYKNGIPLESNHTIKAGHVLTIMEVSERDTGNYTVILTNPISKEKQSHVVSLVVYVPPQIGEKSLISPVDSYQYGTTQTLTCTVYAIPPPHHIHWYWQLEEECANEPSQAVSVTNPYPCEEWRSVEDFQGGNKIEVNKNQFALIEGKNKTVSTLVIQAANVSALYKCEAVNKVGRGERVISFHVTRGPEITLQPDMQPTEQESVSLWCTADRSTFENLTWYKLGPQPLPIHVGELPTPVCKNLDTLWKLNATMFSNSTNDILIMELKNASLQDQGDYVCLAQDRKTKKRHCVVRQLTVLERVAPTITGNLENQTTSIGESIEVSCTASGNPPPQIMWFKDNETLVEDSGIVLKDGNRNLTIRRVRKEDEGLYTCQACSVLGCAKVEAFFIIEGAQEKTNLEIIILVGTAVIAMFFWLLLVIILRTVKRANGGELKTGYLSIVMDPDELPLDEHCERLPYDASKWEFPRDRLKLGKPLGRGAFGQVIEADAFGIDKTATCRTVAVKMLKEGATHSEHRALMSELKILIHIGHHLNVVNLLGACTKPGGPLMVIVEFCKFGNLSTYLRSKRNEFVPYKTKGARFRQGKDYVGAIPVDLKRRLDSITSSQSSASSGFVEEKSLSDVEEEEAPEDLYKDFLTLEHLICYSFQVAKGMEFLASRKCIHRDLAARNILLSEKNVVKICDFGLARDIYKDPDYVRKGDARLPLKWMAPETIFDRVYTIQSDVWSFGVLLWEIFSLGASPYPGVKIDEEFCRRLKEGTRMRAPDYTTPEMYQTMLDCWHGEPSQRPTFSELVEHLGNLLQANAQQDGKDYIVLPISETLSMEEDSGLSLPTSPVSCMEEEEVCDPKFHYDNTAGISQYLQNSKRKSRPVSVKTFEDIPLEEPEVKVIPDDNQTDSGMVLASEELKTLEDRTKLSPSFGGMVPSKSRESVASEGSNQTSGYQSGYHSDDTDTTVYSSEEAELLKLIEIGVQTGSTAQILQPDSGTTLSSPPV

PRKD2 (human) = PRKD2 (human) (UniProt Q9BZL6); conditions: compound 1.0 µM; ATP 155 µM
[9] = test system: AKT2 (human), P31751 [S474D]; conditions: compound 1.0 µM; ATP 200 µM

## CN(C)S(=O)(=O)Nc1ccc2ccc3ncc(-c4cnn(C)c4)cc3c(=O)c2c1
MINK1 (human)
  residual activity: 105%
TSSK1B (human)
  residual activity: 89%
IKBKB (human)
  residual activity: 98%
[1]
  residual activity: 94%
FGFR2 (human)
  residual activity: 12%
[2]
  residual activity: 62%
PDPK1 (human)
  residual activity: 105%
[3]
  residual activity: 83%
HIPK3 (human)
  residual activity: 102%
[4]
  residual activity: 55%
MELK (human)
  residual activity: 38%
PASK (human)
  residual activity: 91%
CAMK1 (human)
  residual activity: 110%
[5]
  residual activity: 88%
CDK7 CCNH MNAT1 (human)
  residual activity: 101%
SIK1 (human)
  residual activity: 87%
TSSK2 (human)
  residual activity: 83%
MKNK2 (human)
  residual activity: 33%
PDGFRA (human)
  residual activity: 59%
[6]
  residual activity: 17%
PLK2 (human)
  residual activity: 58%
YES1 (human)
  residual activity: 71%
MAP2K7 (human)
  residual activity: 69%
[7]
  residual activity: 71%
MAPK3 (human)
  residual activity: 120%
[8]
  residual activity: 43%
FGR (human)
  residual activity: 90%
PTK6 (human)
  residual activity: 103%
PIM1 (human)
  residual activity: 101%
EPHA3 (human)
  residual activity: 96%
EPHA1 (human)
  residual activity: 65%
PKN2 (human)
  residual activity: 92%
CDC42BPB (human)
  residual activity: 94%
IGF1R (human)
  residual activity: 101%
LCK (human)
  residual activity: 50%
KDR (human)
  residual activity: 10%
PRKD2 (human)
  residual activity: 109%
[9]
  residual activity: 89%
